Reference: ChEMBL document CHEMBL4017480, “Discovery and optimization of selective FGFR4 inhibitors via scaffold hopping” (Bioorg Med Chem Lett, 2017)

Key:
[1] = target: T1, Tyrosine-protein kinase Tec (Homo sapiens, UniProt P42680); assay: Inhibition of human TEC using poly[Glu:Tyr] (4:1) as substrate measured after 120 mins in presence of [gamma33P]ATP by P81 ion exchange chromatographic method
T1 sequence (P42680 whole entry): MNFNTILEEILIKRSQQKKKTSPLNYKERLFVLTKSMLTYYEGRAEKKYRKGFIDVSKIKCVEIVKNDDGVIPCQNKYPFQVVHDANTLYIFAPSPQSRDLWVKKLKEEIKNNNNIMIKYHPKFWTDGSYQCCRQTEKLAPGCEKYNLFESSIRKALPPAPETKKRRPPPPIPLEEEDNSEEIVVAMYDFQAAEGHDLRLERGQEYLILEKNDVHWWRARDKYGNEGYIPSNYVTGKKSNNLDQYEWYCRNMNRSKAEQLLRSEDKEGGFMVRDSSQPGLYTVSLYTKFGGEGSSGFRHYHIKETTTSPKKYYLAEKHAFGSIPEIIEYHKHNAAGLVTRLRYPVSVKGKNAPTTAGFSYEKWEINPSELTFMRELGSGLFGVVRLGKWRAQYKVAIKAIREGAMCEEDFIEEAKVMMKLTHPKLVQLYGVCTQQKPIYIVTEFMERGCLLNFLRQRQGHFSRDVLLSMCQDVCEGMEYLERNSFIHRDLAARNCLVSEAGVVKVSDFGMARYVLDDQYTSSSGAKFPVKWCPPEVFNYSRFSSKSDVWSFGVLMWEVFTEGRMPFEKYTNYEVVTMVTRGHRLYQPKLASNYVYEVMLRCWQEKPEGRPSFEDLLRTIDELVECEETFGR

VEGFR2 = VEGFR2 (Homo sapiens, UniProt P35968); assay: Inhibition of human VEGFR2 at 10 uM using poly[Glu:Tyr] (4:1) as substrate measured after 120 mins in presence of [gamma33P]ATP by P81 ion exchange chromatographic method relative to control; settings: human VEGFR2 kinase, probe poly[Glu:Tyr] (4:1)
[2] = target: T2, Tyrosine-protein kinase Tec (Homo sapiens) (UniProt P42680); assay: Inhibition of human TEC at 10 uM using poly[Glu:Tyr] (4:1) as substrate measured after 120 mins in presence of [gamma33P]ATP by P81 ion exchange chromatographic method relative to control
T2 sequence (whole entry): T1 sequence (P42680 whole entry)

[3] = target: Fibroblast growth factor receptor 4 (Homo sapiens, UniProt P22455); assay: Inhibition of recombinant human N-terminal His-tagged FGFR4 cytoplasmic domain […] expressed in baculovirus expression system using tyr 04 peptide as substrate measured within 90 mins by Z-LYTE assay
[4] = Efflux ratio of apparent permeability from basolateral to apical over apical to basolateral side in MDCK2-MDR1 cells at 2 uM after 2.5 hrs LC-MS/MS analysis; type: ADME, cell-based, Canis lupus familiaris; settings: dog, MDCK-MDR1
[5] = target: Fibroblast growth factor receptor 1 (Homo sapiens, UniProt P11362); assay: Inhibition of recombinant human His-tagged FGFR1 cytoplasmic domain (308 to 731 residues) expressed in baculovirus expression system using tyr 04 as substrate measured within 60 mins by Z-LYTE assay
Plasma = assay: Drug degradation in human plasma measured after 2 hrs by metabolite identification method; type: ADME, cell-free
[6] = Unbound plasma concentration in human at 2 uM measured after 4 hrs by LC-MS/MS analysis; type: ADME, cell-free
[7] = Volume of distribution in Balb/c mouse at 0.2 mg/kg, iv administered as single bolus dose by LC-MS/MS analysis; type: ADME, organism-based; settings: in vivo
[8] = Unbound plasma concentration in rat at 2 uM measured after 4 hrs by LC-MS/MS analysis; type: ADME, cell-free

Chain of VEGFR2 (P35968 whole entry): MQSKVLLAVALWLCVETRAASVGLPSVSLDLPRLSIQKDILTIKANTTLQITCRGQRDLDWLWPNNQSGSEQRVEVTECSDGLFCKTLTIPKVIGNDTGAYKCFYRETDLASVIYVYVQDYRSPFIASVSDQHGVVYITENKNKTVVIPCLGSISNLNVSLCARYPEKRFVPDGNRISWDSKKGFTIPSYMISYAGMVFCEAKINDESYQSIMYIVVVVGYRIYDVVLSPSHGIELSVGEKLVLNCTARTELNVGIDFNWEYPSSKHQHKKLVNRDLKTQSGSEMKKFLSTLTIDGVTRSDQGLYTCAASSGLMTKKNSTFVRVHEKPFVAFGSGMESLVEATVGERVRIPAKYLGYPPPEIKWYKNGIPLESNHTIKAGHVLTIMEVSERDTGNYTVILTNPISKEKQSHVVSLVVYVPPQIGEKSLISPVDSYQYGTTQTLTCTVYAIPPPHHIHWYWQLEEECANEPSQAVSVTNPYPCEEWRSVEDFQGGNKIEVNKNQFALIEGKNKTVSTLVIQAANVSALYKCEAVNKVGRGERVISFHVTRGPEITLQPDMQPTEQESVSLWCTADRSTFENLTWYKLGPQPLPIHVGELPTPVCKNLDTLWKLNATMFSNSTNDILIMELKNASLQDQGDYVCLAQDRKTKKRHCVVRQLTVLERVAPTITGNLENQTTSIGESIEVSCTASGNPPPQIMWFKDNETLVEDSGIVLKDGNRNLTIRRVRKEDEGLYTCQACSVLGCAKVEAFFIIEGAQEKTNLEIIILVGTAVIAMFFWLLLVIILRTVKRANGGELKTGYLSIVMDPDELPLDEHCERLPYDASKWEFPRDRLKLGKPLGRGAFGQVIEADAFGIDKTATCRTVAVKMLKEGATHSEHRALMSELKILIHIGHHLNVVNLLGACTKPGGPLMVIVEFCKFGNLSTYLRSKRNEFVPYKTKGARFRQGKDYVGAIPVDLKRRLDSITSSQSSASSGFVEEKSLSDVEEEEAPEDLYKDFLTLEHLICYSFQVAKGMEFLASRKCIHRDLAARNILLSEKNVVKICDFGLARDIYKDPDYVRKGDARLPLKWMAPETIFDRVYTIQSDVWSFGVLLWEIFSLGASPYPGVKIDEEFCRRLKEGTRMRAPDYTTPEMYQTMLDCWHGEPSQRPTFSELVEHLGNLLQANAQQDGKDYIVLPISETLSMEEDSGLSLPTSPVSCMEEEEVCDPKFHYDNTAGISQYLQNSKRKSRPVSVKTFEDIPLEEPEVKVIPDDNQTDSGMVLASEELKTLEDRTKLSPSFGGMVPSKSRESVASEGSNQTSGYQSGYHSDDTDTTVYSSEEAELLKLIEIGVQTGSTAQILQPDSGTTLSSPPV
Chain of Fibroblast growth factor receptor 1 (P11362 whole entry, the tested form may be a part): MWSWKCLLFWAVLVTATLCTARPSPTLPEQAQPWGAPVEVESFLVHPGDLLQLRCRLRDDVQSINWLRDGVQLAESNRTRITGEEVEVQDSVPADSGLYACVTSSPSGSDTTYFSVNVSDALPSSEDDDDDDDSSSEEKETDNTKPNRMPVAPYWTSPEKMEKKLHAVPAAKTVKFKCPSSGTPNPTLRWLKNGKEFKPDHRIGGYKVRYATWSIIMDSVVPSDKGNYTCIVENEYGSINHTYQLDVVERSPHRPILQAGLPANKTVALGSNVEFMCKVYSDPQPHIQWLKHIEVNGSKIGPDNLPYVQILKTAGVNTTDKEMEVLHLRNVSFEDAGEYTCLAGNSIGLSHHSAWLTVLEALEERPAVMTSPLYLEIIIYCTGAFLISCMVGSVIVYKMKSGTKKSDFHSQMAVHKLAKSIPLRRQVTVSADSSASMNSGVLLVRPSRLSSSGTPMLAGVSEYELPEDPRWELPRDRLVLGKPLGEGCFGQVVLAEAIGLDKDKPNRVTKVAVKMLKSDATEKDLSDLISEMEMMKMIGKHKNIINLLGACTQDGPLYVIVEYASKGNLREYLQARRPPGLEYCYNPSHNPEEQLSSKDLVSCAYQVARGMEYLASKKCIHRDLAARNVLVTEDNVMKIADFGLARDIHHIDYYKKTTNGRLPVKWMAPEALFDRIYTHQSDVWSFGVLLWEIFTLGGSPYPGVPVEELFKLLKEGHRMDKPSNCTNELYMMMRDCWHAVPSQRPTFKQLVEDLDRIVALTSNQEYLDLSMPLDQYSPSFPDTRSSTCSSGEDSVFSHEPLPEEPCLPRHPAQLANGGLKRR
Chain of Fibroblast growth factor receptor 4 (P22455 whole entry, the tested form may be a part): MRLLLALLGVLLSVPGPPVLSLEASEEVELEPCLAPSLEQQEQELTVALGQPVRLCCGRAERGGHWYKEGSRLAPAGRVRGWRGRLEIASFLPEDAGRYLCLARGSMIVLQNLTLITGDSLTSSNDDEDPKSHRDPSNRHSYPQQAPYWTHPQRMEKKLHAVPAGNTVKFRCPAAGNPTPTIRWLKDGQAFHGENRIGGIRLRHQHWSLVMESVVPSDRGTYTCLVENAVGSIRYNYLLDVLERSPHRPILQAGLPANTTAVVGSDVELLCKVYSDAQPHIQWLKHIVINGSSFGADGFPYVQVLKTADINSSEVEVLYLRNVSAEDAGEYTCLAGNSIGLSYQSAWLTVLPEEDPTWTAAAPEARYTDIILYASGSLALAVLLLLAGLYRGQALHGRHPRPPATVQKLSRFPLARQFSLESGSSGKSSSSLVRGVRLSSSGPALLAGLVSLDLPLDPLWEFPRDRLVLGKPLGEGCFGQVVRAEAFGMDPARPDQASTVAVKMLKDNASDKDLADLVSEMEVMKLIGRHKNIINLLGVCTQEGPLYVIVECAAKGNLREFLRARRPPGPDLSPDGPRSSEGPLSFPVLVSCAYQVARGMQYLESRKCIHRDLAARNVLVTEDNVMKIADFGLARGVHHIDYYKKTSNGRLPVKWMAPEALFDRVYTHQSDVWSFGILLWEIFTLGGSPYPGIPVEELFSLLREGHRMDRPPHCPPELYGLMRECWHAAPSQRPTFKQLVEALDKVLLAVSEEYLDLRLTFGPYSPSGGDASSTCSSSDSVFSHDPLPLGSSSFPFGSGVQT

Row | IC50 [1] | inhibition at 2 h, 10 µM (VEGFR2) | inhibition [2] | IC50 [3] | efflux ratio at 2.5 h, 2 µM [4] | IC50 [5] | Drug degradation (Plasma) | fraction unbound at 4 h, 2 µM [6] | Vd [7] | fraction unbound at 4 h, 2 µM [8] | SMILES
1 | > 10 µM | 23% | -5% | – | – | – | – | – | – | – | C=CC(=O)Nc1cccc(C)c1Nc1ncc2cc(-c3c(Cl)c(OC)cc(OC)c3Cl)ccc2n1
2 | > 10 µM | 19% | – | 0.003 µM | 1 | 8.6 µM | 30% | – | – | – | C=CC(=O)Nc1cccc(C)c1Nc1ncc(OCc2c(F)c(OC)cc(OC)c2F)cn1
3 | > 10 µM | 11% | -1% | 0.013 µM | 3.8 | 3.5 µM | – | 0.354 | 0.58 L/kg | 0.309 | C=CC(=O)N[C@H]1COC[C@H]1Nc1ncc(OCc2c(F)c(OC)cc(OC)c2F)cn1
